# Target: recombinant full length HPK-1 enzyme (Homo sapiens (Human), UniProt Q92918)
# Assay: HPK-1 biochemical enzyme assay (ADP-Glo kinase inhibition)
# Settings: recombinant full length HPK-1 6.8 nM, 10 μM ATP, 12.5 μM MBP, 30 mins at 25° C.
# Method in brief: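 ADP-Glo readout of ADP formed after a 30 min, 25° C. reaction of 6.8 nM full-length HPK-1 with swine myelin basic protein (12.5 μM) and ATP (10 μM) in Tris pH 7.4 buffer with MgCl2, DTT and BSA. Ten compound concentrations tested; percent inhibition set against vehicle (0%) and no-enzyme (100%) controls gave IC50.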
# Chain of recombinant full length HPK-1 enzyme (Q92918 whole entry, species assumed): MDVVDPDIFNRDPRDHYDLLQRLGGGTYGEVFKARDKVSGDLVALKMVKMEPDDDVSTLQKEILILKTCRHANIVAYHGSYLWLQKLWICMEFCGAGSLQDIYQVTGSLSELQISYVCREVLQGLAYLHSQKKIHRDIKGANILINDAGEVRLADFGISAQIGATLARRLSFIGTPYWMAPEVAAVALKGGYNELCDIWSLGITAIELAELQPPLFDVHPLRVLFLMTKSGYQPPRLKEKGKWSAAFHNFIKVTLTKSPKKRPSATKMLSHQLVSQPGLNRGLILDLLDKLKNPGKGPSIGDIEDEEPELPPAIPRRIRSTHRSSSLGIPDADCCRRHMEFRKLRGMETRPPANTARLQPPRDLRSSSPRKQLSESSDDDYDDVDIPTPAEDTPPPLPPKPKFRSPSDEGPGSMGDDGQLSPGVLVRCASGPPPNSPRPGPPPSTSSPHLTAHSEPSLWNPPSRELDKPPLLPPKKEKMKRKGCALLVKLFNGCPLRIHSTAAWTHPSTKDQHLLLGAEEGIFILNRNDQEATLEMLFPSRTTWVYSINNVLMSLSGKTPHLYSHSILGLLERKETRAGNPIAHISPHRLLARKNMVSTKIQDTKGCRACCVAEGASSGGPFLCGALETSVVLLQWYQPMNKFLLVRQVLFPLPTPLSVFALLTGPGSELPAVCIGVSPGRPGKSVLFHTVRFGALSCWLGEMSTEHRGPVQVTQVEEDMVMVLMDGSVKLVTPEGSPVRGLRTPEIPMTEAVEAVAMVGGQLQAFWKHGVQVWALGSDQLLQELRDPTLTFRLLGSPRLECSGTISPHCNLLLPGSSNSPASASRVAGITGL
row,Compound,IC50 [nM]
1,"Cc1c(Nc2cc[nH]c(=O)c2C(=O)Nc2ccc(N3CCN4CCOC[C@@H]4C3)cc2)cnc2c1NCCO2 [Example 327, (S)-N-(4-(hexahydropyrazino[2,1-c][1,4]oxazin-8(1H)-yl)phenyl)-4-((8-methyl-2,3-dihydro-1H-pyrido[2,3-b][1,4]oxazin-7-yl)amino)-2-oxo-1,2-dihydropyridine-3-carboxamide]",≤ 10
2,"Cc1c(Nc2cc[nH]c(=O)c2C(=O)Nc2ccc(N3CCN4CCC[C@H]4C3)cc2)cnc2c1NCCO2 [Example 328, (S)-N-(4-(hexahydropyrrolo[1,2-a]pyrazin-2(1H)-yl)phenyl)-4-((8-methyl-2,3-dihydro-1H-pyrido[2,3-b][1,4]oxazin-7-yl)amino)-2-oxo-1,2-dihydropyridine-3-carboxamide]",≤ 10
3,"Cc1c(Nc2cc[nH]c(=O)c2C(=O)Nc2ccc(N3CCN4CCC[C@@H]4C3)cc2)cnc2c1NCCO2 [Example 329, (R)-N-(4-(hexahydropyrrolo[1,2-a]pyrazin-2(1H)-yl)phenyl)-4-((8-methyl-2,3-dihydro-1H-pyrido[2,3-b][1,4]oxazin-7-yl)amino)-2-oxo-1,2-dihydropyridine-3-carboxamide]",≤ 10
4,"Cc1c(Nc2cc[nH]c(=O)c2C(=O)Nc2ccc(C3CCCCC3)cc2)cnc2c1NCCO2 [Example 330, N-(4-cyclohexylphenyl)-4-((8-methyl-2,3-dihydro-1H-pyrido[2,3-b][1,4]oxazin-7-yl)amino)-2-oxo-1,2-dihydropyridine-3-carboxamide]",100 to 1000
5,"Cc1c(Nc2cc[nH]c(=O)c2C(=O)Nc2ccc(N3CCN(C(=O)C4CC4)CC3)cc2)cnc2c1NCCO2 [Example 332, N-(4-(4-(cyclopropanecarbonyl)piperazin-1-yl)phenyl)-4-((8-methyl-2,3-dihydro-1H-pyrido[2,3-b][1,4]oxazin-7-yl)amino)-2-oxo-1,2-dihydropyridine-3-carboxamide]",≤ 10
6,"CCC(C)C(=O)N1CCN(c2ccc(NC(=O)c3c(Nc4cnc5c(c4C)NCCO5)cc[nH]c3=O)cc2)CC1 (stereo not shown) [Example 333, 4-((8-methyl-2,3-dihydro-1H-pyrido[2,3-b][1,4]oxazin-7-yl)amino)-N-(4-(4-(2-methylbutanoyl)piperazin-1-yl)phenyl)-2-oxo-1,2-dihydropyridine-3-carboxamide]",≤ 10
7,"Cc1c(Nc2cc[nH]c(=O)c2C(=O)Nc2ccc(N3CCN(C(=O)C4C(C)(C)C4(C)C)CC3)cc2)cnc2c1NCCO2 [Example 334, 4-((8-methyl-2,3-dihydro-1H-pyrido[2,3-b][1,4]oxazin-7-yl)amino)-2-oxo-N-(4-(4-(2,2,3,3-tetramethylcyclopropane-1-carbonyl)piperazin-1-yl)phenyl)-1,2-dihydropyridine-3-carboxamide]",≤ 10
8,"Cc1c(Nc2cc[nH]c(=O)c2C(=O)Nc2ccc(N3CCN(C(=O)C(C)C)CC3)cc2)cnc2c1NCC(C)O2 (stereo not shown) [Example 335, 4-((3,8-dimethyl-2,3-dihydro-1H-pyrido[2,3-b][1,4]oxazin-7-yl)amino)-N-(4-(4-isobutyrylpiperazin-1-yl)phenyl)-2-oxo-1,2-dihydropyridine-3-carboxamide]",10 to 100
9,"Cc1c(Nc2cc[nH]c(=O)c2C(=O)Nc2ccc(N3CCN(c4ccn(C)n4)CC3)cc2)cnc2c1NCCO2 [Example 336, N-(4-(4-(1-methyl-1H-pyrazol-3-yl)piperazin-1-yl)phenyl)-4-((8-methyl-2,3-dihydro-1H-pyrido[2,3-b][1,4]oxazin-7-yl)amino)-2-oxo-1,2-dihydropyridine-3-carboxamide]",≤ 10
10,"Cc1ncccc1N1CCN(c2ccc(NC(=O)c3c(Nc4cnc5c(c4C)NCCO5)cc[nH]c3=O)cc2)CC1 [Example 337, 4-((8-methyl-2,3-dihydro-1H-pyrido[2,3-b][1,4]oxazin-7-yl)amino)-N-(4-(4-(2-methylpyridin-3-yl)piperazin-1-yl)phenyl)-2-oxo-1,2-dihydropyridine-3-carboxamide]",≤ 10
11,"Cc1c(Nc2cc[nH]c(=O)c2C(=O)Nc2ccc(N3CCN(c4cncnc4)CC3)cc2)cnc2c1NCCO2 [Example 338, 4-((8-methyl-2,3-dihydro-1H-pyrido[2,3-b][1,4]oxazin-7-yl)amino)-2-oxo-N-(4-(4-(pyrimidin-5-yl)piperazin-1-yl)phenyl)-1,2-dihydropyridine-3-carboxamide]",10 to 100
12,"Cc1c(Nc2cc[nH]c(=O)c2C(=O)Nc2ccc(N3CCN(c4ncn(C)n4)CC3)cc2)cnc2c1NCCO2 [Example 339, N-(4-(4-(1-methyl-1H-1,2,4-triazol-3-yl)piperazin-1-yl)phenyl)-4-((8-methyl-2,3-dihydro-1H-pyrido[2,3-b][1,4]oxazin-7-yl)amino)-2-oxo-1,2-dihydropyridine-3-carboxamide]",≤ 10
13,"Cc1cc(N2CCN(c3ccc(NC(=O)c4c(Nc5cnc6c(c5C)NCCO6)cc[nH]c4=O)cc3)CC2)ccn1 [Example 340, 4-((8-methyl-2,3-dihydro-1H-pyrido[2,3-b][1,4]oxazin-7-yl)amino)-N-(4-(4-(2-methylpyridin-4-yl)piperazin-1-yl)phenyl)-2-oxo-1,2-dihydropyridine-3-carboxamide]",≤ 10
14,"Cc1c(Nc2cc[nH]c(=O)c2C(=O)Nc2ccc(N3CCN(C(=O)C(C)(C)C)CC3)cc2)cnc2c1NCCO2 [Example 341, 4-((8-methyl-2,3-dihydro-1H-pyrido[2,3-b][1,4]oxazin-7-yl)amino)-2-oxo-N-(4-(4-pivaloylpiperazin-1-yl)phenyl)-1,2-dihydropyridine-3-carboxamide]",≤ 10
15,"Cc1c(Nc2cc[nH]c(=O)c2C(=O)Nc2ccc(N3CCN(C(=O)C(C)(C)F)CC3)cc2)cnc2c1NCCO2 [Example 342, N-(4-(4-(2-fluoro-2-methylpropanoyl)piperazin-1-yl)phenyl)-4-((8-methyl-2,3-dihydro-1H-pyrido[2,3-b][1,4]oxazin-7-yl)amino)-2-oxo-1,2-dihydropyridine-3-carboxamide]",≤ 10
16,"Cc1c(Nc2cc[nH]c(=O)c2C(=O)Nc2ccc(N3CCN(C(=O)C(C)C)[C@@H](C)C3)cc2)cnc2c1NCCO2 [Example 343, (S)-N-(4-(4-isobutyryl-3-methylpiperazin-1-yl)phenyl)-4-((8-methyl-2,3-dihydro-1H-pyrido[2,3-b][1,4]oxazin-7-yl)amino)-2-oxo-1,2-dihydropyridine-3-carboxamide]",≤ 10
17,"COC(C)(C)C(=O)N1CCN(c2ccc(NC(=O)c3c(Nc4cnc5c(c4C)NCCO5)cc[nH]c3=O)cc2)CC1 [Example 344, N-(4-(4-(2-methoxy-2-methylpropanoyl)piperazin-1-yl)phenyl)-4-((8-methyl-2,3-dihydro-1H-pyrido[2,3-b][1,4]oxazin-7-yl)amino)-2-oxo-1,2-dihydropyridine-3-carboxamide]",≤ 10
18,"CCC(=O)N1CCN(c2ccc(NC(=O)c3c(Nc4cnc5c(c4C)NCCO5)cc[nH]c3=O)cc2)C[C@@H]1C [Example 345, (S)-4-((8-methyl-2,3-dihydro-1H-pyrido[2,3-b][1,4]oxazin-7-yl)amino)-N-(4-(3-methyl-4-propionylpiperazin-1-yl)phenyl)-2-oxo-1,2-dihydropyridine-3-carboxamide]",≤ 10
19,"COCCN1CCN(c2ccc(NC(=O)c3c(Nc4cnc5c(c4C)NCCO5)cc[nH]c3=O)cc2)C[C@@H]1C [Example 346, (S)-N-(4-(4-(2-methoxyethyl)-3-methylpiperazin-1-yl)phenyl)-4-((8-methyl-2,3-dihydro-1H-pyrido[2,3-b][1,4]oxazin-7-yl)amino)-2-oxo-1,2-dihydropyridine-3-carboxamide]",≤ 10
20,"CCC(=O)N1CCN(c2ccc(NC(=O)c3c(Nc4cnc5c(c4C)NCCO5)cc[nH]c3=O)cc2)C[C@H]1C [Example 347, (R)-4-((8-methyl-2,3-dihydro-1H-pyrido[2,3-b][1,4]oxazin-7-yl)amino)-N-(4-(3-methyl-4-propionylpiperazin-1-yl)phenyl)-2-oxo-1,2-dihydropyridine-3-carboxamide]",≤ 10
21,"COCCN1CCN(c2ccc(NC(=O)c3c(Nc4cnc5c(c4C)NCCO5)cc[nH]c3=O)cc2)C[C@H]1C [Example 348, (R)-N-(4-(4-(2-methoxyethyl)-3-methylpiperazin-1-yl)phenyl)-4-((8-methyl-2,3-dihydro-1H-pyrido[2,3-b][1,4]oxazin-7-yl)amino)-2-oxo-1,2-dihydropyridine-3-carboxamide]",≤ 10
22,"Cc1c(Nc2cc[nH]c(=O)c2C(=O)Nc2ccc(N3CCN(C(=O)C(C)C)[C@H](C)C3)cc2)cnc2c1NCCO2 [Example 349, (R)-N-(4-(4-isobutyryl-3-methylpiperazin-1-yl)phenyl)-4-((8-methyl-2,3-dihydro-1H-pyrido[2,3-b][1,4]oxazin-7-yl)amino)-2-oxo-1,2-dihydropyridine-3-carboxamide]",≤ 10
23,"CO[C@@H](C)C(=O)N1CCN(c2ccc(NC(=O)c3c(Nc4cnc5c(c4C)NCCO5)cc[nH]c3=O)cc2)CC1 [Example 350, (S)-N-(4-(4-(2-methoxypropanoyl)piperazin-1-yl)phenyl)-4-((8-methyl-2,3-dihydro-1H-pyrido[2,3-b][1,4]oxazin-7-yl)amino)-2-oxo-1,2-dihydropyridine-3-carboxamide]",≤ 10
24,"COCC(C)N1CCN(c2ccc(NC(=O)c3c(Nc4cnc5c(c4C)NCCO5)cc[nH]c3=O)cc2)CC1 (stereo not shown) [Example 351, N-(4-(4-(1-methoxypropan-2-yl)piperazin-1-yl)phenyl)-4-((8-methyl-2,3-dihydro-1H-pyrido[2,3-b][1,4]oxazin-7-yl)amino)-2-oxo-1,2-dihydropyridine-3-carboxamide]",10 to 100
25,"Cc1c(Nc2cc[nH]c(=O)c2C(=O)Nc2ccc(N3CCN(C#N)CC3)cc2)cnc2c1NCCO2 [Example 352, N-(4-(4-cyanopiperazin-1-yl)phenyl)-4-((8-methyl-2,3-dihydro-1H-pyrido[2,3-b][1,4]oxazin-7-yl)amino)-2-oxo-1,2-dihydropyridine-3-carboxamide]",10 to 100

# — patent US20250282794A1 (CURADEV PHARMA LTD, priority 2022, published 2025)
